Data as given in BigSolDB 2.1.

CCn1c2ccccc2c2cc(-n3nncc3-c3ccccc3)ccc21
solubility (mole fraction)
Conditions | 278.15 K | 283.15 K | 288.15 K | 293.15 K | 298.15 K | 303.15 K | 308.15 K | 313.15 K | 318.15 K | 323.15 K
in acetonitrile | 0.00173 | 0.0022 | 0.00272 | 0.00336 | 0.00412 | 0.00505 | 0.00609 | 0.00733 | 0.00897 | 0.011
in ethanol | 0.000446 | 0.000546 | 0.000674 | 0.00084 | 0.00102 | 0.00124 | 0.00151 | 0.00183 | 0.0022 | 0.00262
in isopropanol | 0.000211 | 0.000278 | 0.000371 | 0.000491 | 0.000639 | 0.000825 | 0.00105 | 0.00135 | 0.00174 | 0.00224
in n-propanol | 0.000523 | 0.000671 | 0.000837 | 0.00103 | 0.0013 | 0.00161 | 0.002 | 0.00246 | 0.00297 | 0.00357
in water | 5.79e-07 | 7.99e-07 | 1.08e-06 | 1.46e-06 | 1.96e-06 | 2.61e-06 | 3.4e-06 | 4.49e-06 | 5.81e-06 | 7.48e-06
